From patent US12486276B2, “5-(2,5-difluorophenyl)pyrrolidin-1-yl)-3-(1H-pyrazol-1-yl)pyrazolo[1,5-a]pyrimidine derivatives and related compounds as Trk kinase inhibitors for treating cancer” (Pyramid Biosciences, Inc., priority 2017, dated 2025)

Each molecule was assayed against T1, TrkA kinase domain (Homo sapiens, UniProt P04629) (assay: TrkA Kinase Assay (Trk kinase biochemical assay)). Conditions: 33 pM TrkA, 100 nM peptide substrate, 10 µM ATP; 15 minute preincubation; read-out: TrkA WT IC50.
T1 construct: TrkA kinase domain was supplied by SignalChem; purchased SignalChem
Procedure: Example 33: TrkA Kinase Assay Protocol
TrkA kinase domain was supplied by SignalChem. Ulight PolyGT peptide substrate and Europium labeled W1024 antiphosphotyrosine antibody were supplied by Perkin Elmer. Assay buffer contained 50 mM HEPES, 10 mM MgCb, 1 mM EGTA, 2 mM DTT, 0.1 mg/mL BSA, and 0.005% w/v tween 20, pH 7.5. Enzyme dilution buffer was made by supplementing assay buffer with 25% w/v glycerol. Antibody dilution buffer contained 20 mM Tris, 137 mM NaCl, and 0.05% w/v tween 20, pH 8.0. Buffers were prepared at room temperature. Enzyme solutions were made on ice, while other solutions were made at room temperature and all subsequent assay steps were performed at room temperature. The TrkA stock solution (0.1 mg/mL) was diluted 156× in enzyme dilution buffer and then 100× in assay buffer. Five pL/well of enzyme solution was added to the assay plate (Greiner black 384-well nonbinding plate), with buffer containing no enzyme added to negative control wells. Test compounds were serially diluted in DMSO at 300× final assay concentration. One μL of each test compound dilution was mixed with 99 pL assay buffer plus ATP (30 μM) and five pL of each test compound-ATP solution was added to w¾13s containing enzyme. Positive control wells contained enzyme and substrates but no test compounds. After a 15 minute enzyme-test compound preincubation, five pL of substrate diluted in assay buffer was added to all wells. Final assay concentrations were 33 pM TrkA, 100 nM peptide substrate, and […]. After a five minute reaction, five pL of 80 mM EDTA was added, followed five minutes later by five pL two nM antibody solution. The ratio of fluorescence at 665 nm vs. 615 nM in each well was determined using a Tecan Infinite Pro F200 plate reader. For each test compound well, percent inhibition w % s calculated (% inliib. =100-100*(test value-neg. control)/(pos. control-neg. control)). Percent inhibition values were fit to a four parameter logistic to determine ICso values for each test compound.

T1 sequence (P04629 510-781 limits assumed): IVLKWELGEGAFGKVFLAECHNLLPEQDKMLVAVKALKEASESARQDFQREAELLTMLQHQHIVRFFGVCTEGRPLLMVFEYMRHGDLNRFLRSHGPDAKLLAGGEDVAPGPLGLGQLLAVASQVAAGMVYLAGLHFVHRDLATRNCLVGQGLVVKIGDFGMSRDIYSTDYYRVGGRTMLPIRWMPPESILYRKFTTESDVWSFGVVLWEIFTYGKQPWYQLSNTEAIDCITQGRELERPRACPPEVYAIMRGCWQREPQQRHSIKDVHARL

| IC50 [nM] | Compound |
| --- | --- |
| < 10 | Fc1ccc(F)c([C@H]2CCCN2c2ccn3ncc(-n4cc(C(F)(F)F)cn4)c3n2)c1 [I-147] |
| < 10 | Cc1cnn(-c2cnn3ccc(N4CCC[C@@H]4c4cc(F)ccc4F)nc23)c1 [I-148] |
| < 10 | Fc1ccc(F)c([C@H]2CCCN2c2ccn3ncc(-n4cc(-c5ccccc5)cn4)c3n2)c1 [I-149] |
| < 10 | Cc1cn(-c2cnn3ccc(N4CCC[C@@H]4c4cc(F)ccc4F)nc23)nc1C [I-150] |
| < 10 | Cc1nn(-c2cnn3ccc(N4CCC[C@@H]4c4cc(F)ccc4F)nc23)cc1-c1ccccc1 [I-151] |
| < 10 | Fc1ccc(F)c([C@H]2CCCN2c2ccn3ncc(-n4cccn4)c3n2)c1 [I-152, (R)-5-(2-(2,5-difluorophenyI)pyrroIidin-1-yl)-3-(1H-pyrazol-1-yl)pyrazolo[1,5-a]pyrimidine] |
| < 10 | Fc1ccc(F)c([C@H]2CCCN2c2ccn3ncc(-n4cc(-c5cnccn5)cn4)c3n2)c1 [I-153] |
| < 10 | Cc1cnn(-c2cnn3ccc(N4CCC[C@@H]4c4nc(F)ccc4F)nc23)c1 [I-154, (R)-5-(2-(3,6-difluoropyridin-2-yl)pyrrolidin-1-yl)-3-(4-methyl-1H-pyrazol-1-yl)pyrazolo[1,5-a]pyrimidine] |
| < 10 | OCc1cnn(-c2cnn3ccc(N4CCC[C@@H]4c4cc(F)ccc4F)nc23)c1 [I-155] |
| < 10 | OCCc1cnn(-c2cnn3ccc(N4CCC[C@@H]4c4cc(F)ccc4F)nc23)c1 [I-156] |
| < 10 | Cc1noc(C)c1-c1cnn(-c2cnn3ccc(N4CCC[C@@H]4c4cc(F)ccc4F)nc23)c1 [I-157, (R)-4-(1-(5-(2-(2,5-difluorophenyl)pyrrolidin˜yl)pyrazolo[,5-a]pyrimidin-3-yl)-1H-pyrazol-4-yl)-3,5-dimethylisoxazole] |
| < 10 | Cn1cc(-c2cnn(-c3cnn4ccc(N5CCC[C@@H]5c5cc(F)ccc5F)nc34)c2)cn1 [I-158] |
| < 10 | Fc1ccc(F)c([C@H]2CCCN2c2ccn3ncc(-n4cc(-c5cccnc5)cn4)c3n2)c1 [I-159] |
| < 10 | Fc1ccc(F)c([C@H]2CCCN2c2ccn3ncc(-n4cc(-c5ccncc5)cn4)c3n2)c1 [I-160] |
| < 10 | COc1cncc(-c2cnn(-c3cnn4ccc(N5CCC[C@@H]5c5cc(F)ccc5F)nc34)c2)c1 [I-161] |
| < 10 | Fc1ccc(F)c([C@H]2CCCN2c2ccn3ncc(-n4cc(-c5ccsc5)cn4)c3n2)c1 [I-162] |
| < 10 | Fc1ccc(F)c([C@H]2CCCN2c2ccn3ncc(-n4cc(-c5cncnc5)cn4)c3n2)c1 [I-163] |
| < 10 | Cc1ncc(-c2cnn(-c3cnn4ccc(N5CCC[C@@H]5c5cc(F)ccc5F)nc34)c2)s1 [I-164] |
| < 10 | Cn1ccc(-c2cnn(-c3cnn4ccc(N5CCC[C@@H]5c5cc(F)ccc5F)nc34)c2)cc1=O [I-165] |
| > 500 | COc1cc(C)nn1-c1cnn2ccc(N3CCC[C@@H]3c3cc(F)ccc3F)nc12 [I-166] |

| IC50 [nM] | Compound |
| --- | --- |
| > 500 | COc1cc(C)n(-c2cnn3ccc(N4CCC[C@@H]4c4cc(F)ccc4F)nc23)n1 [I-167] |
| < 10 | Fc1ccc(F)c([C@H]2CCCN2c2ccn3ncc(-n4cncn4)c3n2)c1 [I-168] |
| < 10 | CC(C)(O)c1cnn(-c2cnn3ccc(N4CCC[C@@H]4c4cc(F)ccc4F)nc23)c1 [I-169] |
| < 10 | N#Cc1cnn(-c2cnn3ccc(N4CCC[C@@H]4c4cc(F)ccc4F)nc23)c1 [I-170, (R)-1-(5-(2-(2,5-difluorophenyl)pyrrolidin-1-yl)pyrazolo[J5-a]pyrimidin-3-yl)-1H-pyrazole-4-carbonitrile] |
| < 10 | Fc1ccc(F)c([C@H]2CCCN2c2ccn3ncc(-n4cc(-c5cn[nH]c5)cn4)c3n2)c1 [I-171] |
| < 10 | COc1cnn(-c2cnn3ccc(N4CCC[C@@H]4c4cc(F)ccc4F)nc23)c1 [I-172] |
| < 10 | NC(=O)c1cnn(-c2cnn3ccc(N4CCC[C@@H]4c4cc(F)ccc4F)nc23)c1 [I-173, (R)-1-(5-(2-(2,5-difluorophenyl)pyrrolidin-1-yl)pyrazolo[1,5-a]pyrimidin-3-yl)-1H-pyrazole-4-carboxamide] |
| < 10 | CP(C)(=O)c1cnn(-c2cnn3ccc(N4CCC[C@@H]4c4cc(F)ccc4F)nc23)c1 [I-174, (R)-(1-(5-(2-(2,5-difluorophenyl)pyrrolidm-1-yl)pyrazolo[1,5-a]pyrimidin-3-yl)-1H-pyrazol-4-yl)dimethylphosphine-oxide] |
| < 10 | Fc1ccc(F)c([C@H]2CCCN2c2ccn3ncc(-n4cc(C5=CCOCC5)cn4)c3n2)c1 [I-175, (R)-5-(2-(2,5-difluorophenyl)pyrrolidin-1-yl)-3-(4-(3,6-dihydro-2H-pyran-4-yl)-1H-pyrazol-1-yl)pyrazolo[1,5-a]pyrimidine] |
| < 10 | Fc1ccc(F)c([C@H]2CCCN2c2ccn3ncc(-n4cc(C(F)F)cn4)c3n2)c1 [I-176, (R)-3-(4-(difluor®methyl)-1H-pyrazol-1-yl)-5-(2-(2,5-difluorophenyl)pyrrolidin-˜yl)pyrazolo[1,5-a]pyriniidine] |
| < 10 | CCP(=O)(CC)c1cnn(-c2cnn3ccc(N4CCC[C@@H]4c4cc(F)ccc4F)nc23)c1 [I-177] |
| < 10 | Cc1nnc(-c2cnn(-c3cnn4ccc(N5CCC[C@@H]5c5cc(F)ccc5F)nc34)c2)o1 [I-178, (R)-2-(1-(5-(2-(2,5-difluorophenyl)pyrrolidin-1-yl)pyrazolo[1,5-a]pyrimidin-3-yl)-1H-pyrazol-4-yl)-5-methyl-1,3,4-oxadiazole] |
| < 10 | Fc1ccc(F)c([C@H]2CCCN2c2ccn3ncc(-n4cc(OC5COC5)cn4)c3n2)c1 [I-179] |
| < 10 | COCCOCc1cnn(-c2cnn3ccc(N4CCC[C@@H]4c4cc(F)ccc4F)nc23)c1 [I-180, (R)-5-(2-(2,5-difluerophenyl)pyrrolidin-1-yl)-3-(4-((2-methoxyethoxy)methyl)-1H-pyrazol-1-yl)pyrazolo[1,5-a]pyrimidine] |
| < 10 | CS(=O)(=O)c1cnn(-c2cnn3ccc(N4CCC[C@@H]4c4cc(F)ccc4F)nc23)c1 [I-181, (R)-5-(2-(2,5-difluorophenyl)pyrrolidin-1-yl)-3-(4-(methylsulfonyl)-1H-pyrazoI-1-yl)pyrazolo[1,5-a]pyrimidine] |
| < 10 | Cc1cnn(-c2cnn3ccc(N4CCC[C@@H]4c4ncccc4F)nc23)c1 [I-182, (R)-5-(2-(3-fluoropyridin-2-yl)pyrrolidin-1-yl)-3-(4-methyl-1H-pyrazol-1-yl)pyrazolo[1,5-a] pyrimidine] |
| < 10 | Fc1ccc(F)c([C@H]2CCCN2c2ccn3ncc(-n4cc5c(n4)CCOC5)c3n2)c1 [I-183, (R)-2-(5-(2-(2,5-difluorophenyl)pyrrolidin-1-yl)pyrazolo[1,5-a]pyrimidin-3-yl)-2,4,6,7-tetrahydropyrano[4,3-c]pyrazole] |
| < 10 | Fc1ccc(F)c([C@H]2CCCN2c2ccn3ncc(-n4ncc5c4CCOC5)c3n2)c1 [I-184, (R)-1-(5-(2-(2,5-difluorophenyl)pyrrolidin-1-yl)pyrazolo[1,5-a]pyrimidin-3-yl)-1,4,6,7-tetrahydropyrano[4,3-c]pyrazole] |
| < 10 | O=C(c1cnn(-c2cnn3ccc(N4CCC[C@@H]4c4cc(F)ccc4F)nc23)c1)N1CCOCC1 [I-185, (R)-(1-(5-(2-(2,5-difluoropheiiyl)pyrrolidin-1-yl)pyrazolo[la]pyrimidin-3-yl)-1H-pyrazol-4-yl)(morpholino)methanone] |
